The text below walks through data of patent US20220081434A1, “DIHYDROISOQUINOLINE COMPOUND” (SUZHOU ARK BIOPHARMACEUTICAL CO., LTD., priority 2019, published 2022).

Data set [1] relates to hepatitis B surface antigen (HBsAg). Kind of data set: Determination of hepatitis B surface antigen (HBsAg) in HepG2.2.15 cell supernatant. The format is cell-based, hepatitis B virus (HepG2.2.15 cells). The note with it: Hepatitis B virus, HepG2.2.15, 96 h, read-out: HBsAg inhibitory activity IC50. The protocol: (§1) The full genome of HBV was inserted into an […] cell, which could therefore express HBV continuously (Sells et al, Proc Natl Acad Sci USA. 1987 February; 84 (4):1005-9). The culture condition was DMEM medium containing 10% serum and […] G418. Cells were placed in an incubator containing 5% CO2 and cultured at 37° C.
HepG2.2.15 cells were seeded into a 96-well culture plate at a density of 3×10^4 cells/well. On the next day, the drug dissolved in DMSO was subjected to a 5-fold dilution and then added to the cells. 0.5% DMSO was added separately as control. The supernatant was collected after 4 days of drug action, and the content of hepatitis B surface antigen was determined.
The determination of hepatitis B surface antigen was carried out by using a kit for quantitative determination of hepatitis B virus surface antigen (chemiluminescence method). The specific operations were as follows. 50 μL cell culture supernatant was taken and transferred to the assay plate. 50 μL of enzyme-linked reagent was added thereto and the assay plate was sealed. Incubation was carried out at room temperature for 1 hour. Afterwards, the assay plate was washed six times with PBS, and finally, the residual liquid was removed by shaking the plate. 25 μL of substrates A and B were added respectively, and the determination was conducted by using a microplate reader (Tecan Infinite® F200) after ten minutes of reaction. IC50 was calculated after fitting the dose-response curve.

A further data set deals with HBV DNA. Kind of data set: Determination of HBV DNA in HepG2.2.15 cell supernatant by qPCR. The format is cell-based, hepatitis B virus (HepG2.2.15 cells). The note with it: Hepatitis B virus, 168 h, HepG2.2.15 cells, supernatant after a total of 7 days of drug action, read-out: Inhibitory activity against HBV DNA IC50. On the procedure: as §1
HepG2.2.15 cells were seeded into a 96-well culture plate at a density of 4×10^4 cells/well. After 4 hours, the drug dissolved in DMSO was subjected to a 4-fold dilution and then added to cells. 0.5% DMSO was added separately as control. On the 4th day of drug action, the original supernatant was removed and then the drug was added thereto again. The supernatant was collected after a total of 7 days of drug action and treated with lysis buffer. The determination of hepatitis B DNA was carried out by real-time fluorescence-based quantitative polymerase chain reaction (qPCR). After the completion of the qPCR, data were exported from the instrument and analyzed, and IC50 indicating antiviral activity was calculated after fitting the dose-response curve.
(Quantitative PCR measures a nucleic acid by following its amplification.)

Data set [2] can be described thus: Pharmacokinetic experiments in ICR mice (plasma). The format is in vivo. As to conditions: for AUC(0-t): read-out: AUC0-12. On the procedure: Multiple compounds in the Examples of the present disclosure were administered to ICR mice to conduct pharmacokinetic experiments. A single intravenous injection (with a dose of 2 mg/kg) and a single oral administration (with a dose of 10 mg/kg) were administered respectively. Blood was respectively collected prior to administration and 5 minutes, 15 minutes, 30 minutes, 1 hour, 2 hours, 4 hours, 8 hours, 12 hours and 24 hours after administration, and the concentration of the test compound in plasma was determined. Plasma pharmacokinetic data of the control compound (obtained from Example 28 in patent WO2018130152 A1) and the compounds of Examples 10 and 19 in the present disclosure in mice were as shown in the following Table 5 to Table 7.

Where [3] appears, read: mouse, single intravenous injection 2 mg/kg, plasma.
Where [4] appears, read: mouse, single oral administration 10 mg/kg, plasma.

Where two headings read alike, the source gives them in different places.

By IC50 is commonly meant the point on the concentration scale where inhibition reaches its midpoint. For `COc1cc2c(cc1-c1cnc(N3CCC(O)CC3)s1)CC(C(C)(C)C)n1cc(C(=O)O)c(=O)cc1-2` (stereo not drawn) [Example 1, 6-tert-butyl-9-[2-(4-hydroxypiperidin-1-yl)thiazol-5-yl]-10-methoxy-2-oxo-6,7-dihydro-2H-pyrido[2,1-a]isoquinoline-3-carboxylic Acid], the IC50 in data set [1] was determined as 0.33 nM. Consider `COc1cc2c(cc1-c1cnc(N3CCC(CO)CC3)s1)CC(C(C)(C)C)n1cc(C(=O)O)c(=O)cc1-2` (stereo not drawn) [Example 2, 6-tert-butyl-9-{2-[4-(hydroxymethyl)piperidin-1-yl]thiazol-5-yl}-10-methoxy-2-oxo-6,7-dihydro-2H-pyrido[2,1-a]isoquinoline-3-carboxylic Acid], for which the IC50 in data set [1] worked out at 0.06 nM; in the data set on HBV DNA, 0.11 nM. For `COc1cc2c(cc1-c1cnc(N3CCC3)s1)CC(C(C)(C)C)n1cc(C(=O)O)c(=O)cc1-2` (stereo not drawn) [Example 3, 9-[2-(azetidin-1-yl)thiazol-5-yl]-6-tert-butyl-10-methoxy-2-oxo-6,7-dihydro-2H-pyrido[2,1-a]isoquinoline-3-carboxylic Acid], the IC50 in data set [1] came out at 0.07 nM. Regarding `COc1cc2c(cc1-c1cnc(N3CC(F)(F)C3)s1)CC(C(C)(C)C)n1cc(C(=O)O)c(=O)cc1-2` (stereo not drawn) [Example 4, 6-tert-butyl-9-[2-(3,3-difluoroazetidin-1-yl)thiazol-5-yl]-10-methoxy-2-oxo-6,7-dihydro-2H-pyrido[2,1-a]isoquinoline-3-carboxylic Acid], the IC50 in data set [1] was 0.045 nM; in the data set with HBV DNA, 0.26 nM. On to `COc1cc2c(cc1-c1cnc(N3CCOCC3)s1)CC(C(C)(C)C)n1cc(C(=O)O)c(=O)cc1-2` (stereo not drawn) [Example 5, 6-tert-butyl-10-methoxy-9-(2-morpholinothiazol-5-yl)-2-oxo-6,7-dihydro-2H-pyrido[2,1-a]isoquinoline-3-carboxylic Acid], for which the IC50 in data set [1] was determined as 0.3 nM. Same read-out and setting: under `COc1cc2c(cc1-c1cnc(N(C)C)s1)CC(C(C)(C)C)n1cc(C(=O)O)c(=O)cc1-2` (stereo not drawn) [Example 6, 6-tert-butyl-9-[2-(dimethylamino)thiazol-5-yl]-10-methoxy-2-oxo-6,7-dihydro-2H-pyrido[2,1-a]isoquinoline-3-carboxylic Acid] stands 0.3 nM. Take `COc1cc2c(cc1-c1cnc(N3CCC(C)(O)CC3)s1)CC(C(C)(C)C)n1cc(C(=O)O)c(=O)cc1-2` (stereo not drawn) [Example 7, 6-tert-butyl-9-[2-(4-hydroxy-4-methylpiperidin-1-yl)thiazol-5-yl]-10-methoxy-2-oxo-6,7-dihydro-2H-pyrido[2,1-a]isoquinoline-3-carboxylic Acid]: the IC50 in data set [1] is 0.08 nM; in the data set on HBV DNA, 0.15 nM.

For the molecule `COc1cc2c(cc1-c1cnc(N3CCC(OC)CC3)s1)CC(C(C)(C)C)n1cc(C(=O)O)c(=O)cc1-2` (stereo not drawn) [Example 8, 6-tert-butyl-10-methoxy-9-[2-(4-methoxypiperidin-1-yl)thiazol-5-yl]-2-oxo-6,7-dihydro-2H-pyrido[2,1-a]isoquinoline-3-carboxylic Acid], the IC50 in data set [1] came out at 0.2 nM. On the same count and under the same terms, under `COc1ncc(-c2cc3c(cc2OC)-c2cc(=O)c(C(=O)O)cn2C(C(C)(C)C)C3)s1` (stereo not drawn) [Example 12, 6-tert-butyl-10-methoxy-9-(2-methoxythiazol-5-yl)-2-oxo-6,7-dihydro-2H-pyrido[2,1-a]isoquinoline-3-carboxylic Acid] stands 0.45 nM; under `CCOCc1ncc(-c2cc3c(cc2OC)-c2cc(=O)c(C(=O)O)cn2C(C(C)(C)C)C3)s1` (stereo not drawn) [Example 14, 6-tert-butyl-9-[2-(ethoxymethyl)thiazol-5-yl]-10-methoxy-2-oxo-6,7-dihydro-2H-pyrido[2,1-a]isoquinoline-3-carboxylic Acid], 0.2 nM; under `COc1cc2c(cc1-c1cnc(C(C)OC)s1)CC(C(C)(C)C)n1cc(C(=O)O)c(=O)cc1-2` (stereo not drawn) [Example 15, 6-tert-butyl-10-methoxy-9-[2-(1-methoxyethyl)thiazol-5-yl]-2-oxo-6,7-dihydro-2H-pyrido[2,1-a]isoquinoline-3-carboxylic Acid], 0.2 nM. The same measure, in the same setting: under `COc1cc2c(cc1-c1cnc(C(C)(C)OC)s1)CC(C(C)(C)C)n1cc(C(=O)O)c(=O)cc1-2` (stereo not drawn) [Example 17, 6-tert-butyl-10-methoxy-9-[2-(2-methoxypropan-2-yl)thiazol-5-yl]-2-oxo-6,7-dihydro-2H-pyrido[2,1-a]isoquinoline-3-carboxylic Acid] stands 0.3 nM. As a reminder, the bioavailability is the share of a dose that reaches the circulation, judged against a reference dose that is usually intravenous. Broadly, the AUC(0-inf) is the area under the concentration-time curve extrapolated to infinity. Read a high AUC(0-inf) as high exposure. A word on the Cmax: it is the highest concentration seen after dosing. The Tmax is the time from dosing to the highest level. A word on the clearance: it is a measure of how efficiently the substance is removed, as volume per time. A higher clearance goes with a high capacity for elimination. For orientation: half-life means the time needed for the level to fall by half in the phase considered. A high value points to slow decline. For the molecule `CNC(=O)c1ncc(-c2cc3c(cc2OC)-c2cc(=O)c(C(=O)O)cn2C(C(C)(C)C)C3)s1` (stereo not drawn) [Example 19, 6-tert-butyl-10-methoxy-9-[2-(methylcarbamoyl)thiazol-5-yl]-2-oxo-6,7-dihydro-2H-pyrido[2,1-a]isoquinoline-3-carboxylic Acid], the IC50 in data set [1] was determined as 0.3 nM. Besides, the bioavailability in data set [2] (mouse, plasma, oral 10 mg/kg vs intravenous 2 mg/kg, read-out: F (bioavailability)) is 87%. In data set [2] (setting [3]), the AUC(0-inf) was determined as 1210 ng·h/mL, the highest level (Cmax) was 1020 ng/mL, the Tmax worked out at 4.8 min and the clearance is 27.6 mL/min/kg. Also, in data set [2] (setting [3]), the half-life was 78 min and the AUC(0-t) stood at 1200 ng·h/mL. For the same molecule, the Vd in data set [2] (mouse, single intravenous injection 2 mg/kg, plasma, read-out: Vss) came to 2.27 L/kg. Further, in data set [2] (setting [4]), the AUC(0-inf) amounted to 5290 ng·h/mL, the concentration peaked (Cmax) at 2420 ng/mL, the Tmax was 30 min and the half-life is 150 min. In addition, in data set [2] (setting [4]), the AUC(0-t) worked out at 5210 ng·h/mL. In addition, the “plasma exposure compared with the control compound” value in data set [2] (same dose, after intravenous injection and oral administration) was “significantly higher”. On to `CCNC(=O)c1ncc(-c2cc3c(cc2OC)-c2cc(=O)c(C(=O)O)cn2C(C(C)(C)C)C3)s1` (stereo not drawn) [Example 20, 6-tert-butyl-9-[2-(ethylcarbamoyl)thiazol-5-yl]-10-methoxy-2-oxo-6,7-dihydro-2H-pyrido[2,1-a]isoquinoline-3-carboxylic Acid], for which, in data set [1], the IC50 came out at 0.3 nM.

With `COCCOc1ncc(-c2cc3c(cc2OC)-c2cc(=O)c(C(=O)O)cn2C(C(C)(C)C)C3)s1` (stereo not drawn) [Example 21, 6-tert-butyl-10-methoxy-9-[2-(2-methoxyethoxy)thiazol-5-yl]-2-oxo-6,7-dihydro-2H-pyrido[2,1-a]isoquinoline-3-carboxylic Acid], in data set [1], the IC50 was found to be 0.3 nM. As for `COCCNC(=O)c1ncc(-c2cc3c(cc2OC)-c2cc(=O)c(C(=O)O)cn2C(C(C)(C)C)C3)s1` (stereo not drawn) [Example 22, 6-tert-butyl-10-methoxy-9-{2-[(2-methoxyethyl)carbamoyl]thiazol-5-yl}-2-oxo-6,7-dihydro-2H-pyrido[2,1-a]isoquinoline-3-carboxylic Acid], in data set [1], the IC50 worked out at 0.4 nM. On the same count and under the same terms, under `COc1cc2c(cc1-c1cnc(C3CC(F)(F)C3)s1)CC(C(C)(C)C)n1cc(C(=O)O)c(=O)cc1-2` (stereo not drawn) [Example 25, 6-tert-butyl-9-[2-(3,3-difluorocyclobutyl)thiazol-5-yl]-10-methoxy-2-oxo-6,7-dihydro-2H-pyrido[2,1-a]isoquinoline-3-carboxylic Acid] stands 0.24 nM; under `COc1cc2c(cc1-c1cnc(C3CC(F)C3)s1)CC(C(C)(C)C)n1cc(C(=O)O)c(=O)cc1-2` (stereo not drawn) [Example 26, 6-tert-butyl-9-[2-(3-fluorocyclobutyl)thiazol-5-yl]-10-methoxy-2-oxo-6,7-dihydro-2H-pyrido[2,1-a]isoquinoline-3-carboxylic Acid], 0.1 nM.

In the case of `COc1cc2c(cc1-c1cnc(C3CC(OC)C3)s1)CC(C(C)(C)C)n1cc(C(=O)O)c(=O)cc1-2` (stereo not drawn) [Example 27, 6-tert-butyl-10-methoxy-9-[2-(3-methoxycyclobutyl)thiazol-5-yl]-2-oxo-6,7-dihydro-2H-pyrido[2,1-a]isoquinoline-3-carboxylic Acid], in data set [1], the IC50 amounted to 0.1 nM.
